Test results reported in patent US20240041042A1, “1-(PYRIDYL)-5-AZINYLPYRAZOLE DERIVATIVES, AND THEIR USE FOR CONTROL OF UNDESIRED PLANT GROWTH” (Bayer Aktiengesellschaft, priority 2020, published 2024).

Columns and labels:
Type in all cases: in vivo
[1] = system: Abutilon theophrasti (ABUTH); test: Pre-emergence herbicidal action against ABUTH; conditions: Dosage column 320 g/ha (title prints 3200 g/ha); scored visually after about 3 weeks; 100% = plants have died
How it was run: (§1)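 Application rates ran to 320 g/ha or lower, with several dosages tested on the same weeds. The compound, as wettable powder or emulsion concentrate, is sprayed pre-emergence onto soil over sown seeds; greenhouse growth follows, and effect is rated visually after roughly 3 weeks.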

[2] = system: Alopecurus myosuroides (ALOMY); test: Pre-emergence herbicidal action against ALOMY; conditions: scored visually after about 3 weeks, 100% = plants have died
How it was run: as §1

[3] = system: Amaranthus retroflexus (AMARE); test: Pre-emergence herbicidal action against AMARE; conditions: visual scoring after about 3 weeks vs untreated controls
How it was run: as §1

Avena fatua (AVEFA) [4] = test: Pre-emergence herbicidal action against AVEFA; conditions: 320 g/ha, visual scoring after about 3 weeks vs untreated controls
How it was run: as §1

[5] = system: Echinochloa crus-galli (ECHCG); test: Pre-emergence herbicidal action against ECHCG
How it was run: as §1

Lolium rigidum (LOLRI) [6] = test: Pre-emergence herbicidal action against LOLRI
How it was run: as §1

[7] = system: Matricaria inodora (MATIN); test: Pre-emergence herbicidal action against MATIN
How it was run: as §1

[8] = system: Pharbitis purpurea (PHBPU); test: Pre-emergence herbicidal action against PHBPU
How it was run: as §1

[9] = system: Polygonum convolvulus (POLCO); test: Pre-emergence herbicidal action against POLCO
How it was run: as §1

Setaria viridis (SETVI) [10] = test: Pre-emergence herbicidal action against SETVI
How it was run: as §1

[11] = system: Verconica persica (VERPE); test: Pre-emergence herbicidal action against VERPE; conditions: dosage 320 g/ha
How it was run: as §1

Viola tricolor (VIOTR) [12] = test: Pre-emergence herbicidal action against VIOTR
How it was run: as §1

[13] = system: Alopecurus myosuroides (ALOMY); test: Post-emergence herbicidal action against ALOMY; conditions: 320 g/ha, visual rating about 3 weeks after treatment vs untreated controls (100% = plants have died, 0% = like control plants)
How it was run: (§2)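 Doses of 320 g/ha or lower, suffixes a, b and c marking different dosages, were applied post-emergence at the one-leaf stage in 600 l/ha water with 0.5% additive. Damage was assessed visually after about 3 weeks in the greenhouse.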

Avena fatua (AVEFA) [14] = test: Post-emergence herbicidal action against AVEFA; conditions: visual rating about 3 weeks after treatment
How it was run: as §2

[15] = system: Echinochloa crus-galli (ECHCG); test: Post-emergence herbicidal action against ECHCG
How it was run: as §2

Lolium rigidum (LOLRI) [16] = test: Post-emergence herbicidal action against LOLRI; conditions: dosage 320 g/ha
How it was run: as §2

[17] = system: Matricaria inodora (MATIN); test: Post-emergence herbicidal action against MATIN; conditions: dosage 320 g/ha
How it was run: as §2

[18] = system: Pharbitis purpurea (PHBPU); test: Post-emergence herbicidal action against PHBPU
How it was run: as §2

Setaria viridis (SETVI) [19] = test: Post-emergence herbicidal action against SETVI
How it was run: as §2

[20] = system: Verconica persica (VERPE); test: Post-emergence herbicidal action against VERPE
How it was run: as §2

Viola tricolor (VIOTR) [21] = test: Post-emergence herbicidal action against VIOTR
How it was run: as §2

Oryza sativa (ORYSA) = conditions: crop plant compatibility, 80 g/ha, effect in comparison to untreated controls
How it was run: (§3)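 Foliar application at the one-leaf stage: WP/EC formulation, 0.5% additive, 600 l/ha water. Greenhouse-grown in sandy loam. Endpoint is visual % injury relative to untreated controls at about 3 weeks.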

[22] = system: Amaranthus retroflexus (AMARE); test: Post-emergence herbicidal action against AMARE
How it was run: as §2

[23] = system: Polygonum convolvulus (POLCO); test: Post-emergence herbicidal action against POLCO
How it was run: as §2

Zea mays (ZEAMX) = conditions: crop plant compatibility, 80 g/ha, effect vs untreated controls
How it was run: as §3

Compound | Pre-emergence action against ABUTH [1] [%] | Pre-emergence action against ALOMY ([2]; 320 g/ha) [%] | Pre-emergence action against AMARE in % ([3]; 80 g/ha) [%] | Pre-emergence action against AMARE in % ([3]; 320 g/ha) [%] | Pre-emergence action against AVEFA in % (Avena fatua (AVEFA) [4]) [%] | Pre-emergence action against ECHCG in % ([5]; dosage 320 g/ha) [%] | Pre-emergence action against LOLRI in % (Lolium rigidum (LOLRI) [6]; dosage 80 g/ha) [%] | Pre-emergence action against LOLRI in % (Lolium rigidum (LOLRI) [6]; dosage 320 g/ha) [%] | Pre-emergence action against MATIN in % ([7]; dosage 320 g/ha) [%] | Pre-emergence action against PHBPU in % ([8]; dosage 320 g/ha) [%] | Pre-emergence action against POLCO in % ([9]; dosage 80 g/ha) [%] | Pre-emergence action against POLCO in % ([9]; dosage 320 g/ha) [%] | Pre-emergence action against SETVI in % (Setaria viridis (SETVI) [10]; dosage 320 g/ha) [%] | Pre-emergence action against VERPE in % [11] [%] | Pre-emergence action against VIOTR in % (Viola tricolor (VIOTR) [12]; 320 g/ha, Viola tricolor) [%] | Pre-emergence action against VIOTR in % (Viola tricolor (VIOTR) [12]; dosage 80 g/ha) [%] | Post-emergence action against ALOMY in % [13] [%] | Post-emergence action against AVEFA in % (Avena fatua (AVEFA) [14]; 320 g/ha) [%] | Post-emergence action against ECHCG in % ([15]; dosage 80 g/ha) [%] | Post-emergence action against ECHCG in % ([15]; dosage 320 g/ha) [%] | also measured
C[C@@H](Oc1nn(-c2nc(F)ccc2F)c(-c2cncc(F)c2)c1Br)C(=O)O [Example I-155] | 90 | 100 | 90 | 100 | 90 | 100 | 90 | 100 | 90 | 90 | 90 | 90 | 100 | 100 | 100 | 100 | 80 | 80 | 80 | 80 | Pre-emergence action against ECHCG in % ([5]; dosage 80 g/ha): 90%; Pre-emergence action against MATIN in % ([7]; dosage 80 g/ha): 90%; Pre-emergence action against PHBPU in % ([8]; dosage 80 g/ha): 90%; Pre-emergence action against SETVI in % (Setaria viridis (SETVI) [10]; dosage 80 g/ha): 80%; Post-emergence action against LOLRI in % (Lolium rigidum (LOLRI) [16]): 80%; Post-emergence action against MATIN in % [17]: 80%; Post-emergence action against PHBPU in % ([18]; dosage 80 g/ha): 80%; Post-emergence action against PHBPU in % ([18]; dosage 320 g/ha): 90%; Post-emergence action against SETVI in % (Setaria viridis (SETVI) [19]; dosage 80 g/ha): 80%; Post-emergence action against SETVI in % (Setaria viridis (SETVI) [19]; dosage 320 g/ha): 90%; Post-emergence action against VERPE in % ([20]; 320 g/ha, VERPE): 80%; Post-emergence action against VERPE in % ([20]; dosage 80 g/ha): 80%; Post-emergence action against VIOTR in % (Viola tricolor (VIOTR) [21]; 80 g/ha): 80%; Post-emergence action against VIOTR in % (Viola tricolor (VIOTR) [21]; 320 g/ha): 80%; Post-emergence action against ORYSA in % (Oryza sativa (ORYSA)): 10%
Cc1cccnc1-n1nc(OCC(=O)O)c(Br)c1-c1ccc(F)nc1 [Example I-324] | 80 | 100 | 100 | 100 | 100 | 100 | 100 | 100 | 90 | 90 | 90 | 100 | 100 | 100 | 100 | 100 | 100 | 100 | 90 | 90 | Pre-emergence action against ALOMY ([2]; 80 g/ha): 100%; Post-emergence action against AMARE in % ([22]; 80 g/ha, visual rating about 3 weeks after treatment vs untreated controls (100% = plants have died, 0% = like control plants)): 90%; Post-emergence action against AMARE in % ([22]; 320 g/ha, visual rating about 3 weeks after treatment): 90%; Post-emergence action against AVEFA in % (Avena fatua (AVEFA) [14]; 80 g/ha): 100%; Post-emergence action against LOLRI in % (Lolium rigidum (LOLRI) [16]): 90%; Post-emergence action against MATIN in % [17]: 80%; Post-emergence action against PHBPU in % ([18]; dosage 320 g/ha): 90%; Post-emergence action against POLCO in % ([23]; dosage 80 g/ha): 80%; Post-emergence action against POLCO in % ([23]; dosage 320 g/ha): 80%; Post-emergence action against SETVI in % (Setaria viridis (SETVI) [19]; dosage 80 g/ha): 80%; Post-emergence action against SETVI in % (Setaria viridis (SETVI) [19]; dosage 320 g/ha): 90%; Post-emergence action against VERPE in % ([20]; 320 g/ha, VERPE): 90%; Post-emergence action against VERPE in % ([20]; dosage 80 g/ha): 90%; Post-emergence action against VIOTR in % (Viola tricolor (VIOTR) [21]; 80 g/ha): 80%; Post-emergence action against VIOTR in % (Viola tricolor (VIOTR) [21]; 320 g/ha): 80%; Post-emergence action against ZEAMX in % (Zea mays (ZEAMX)): 0%
